The target of one assay is T1, Cytosol aminopeptidase (Sus scrofa, UniProt P28839).
T1 sequence (P28839 whole entry): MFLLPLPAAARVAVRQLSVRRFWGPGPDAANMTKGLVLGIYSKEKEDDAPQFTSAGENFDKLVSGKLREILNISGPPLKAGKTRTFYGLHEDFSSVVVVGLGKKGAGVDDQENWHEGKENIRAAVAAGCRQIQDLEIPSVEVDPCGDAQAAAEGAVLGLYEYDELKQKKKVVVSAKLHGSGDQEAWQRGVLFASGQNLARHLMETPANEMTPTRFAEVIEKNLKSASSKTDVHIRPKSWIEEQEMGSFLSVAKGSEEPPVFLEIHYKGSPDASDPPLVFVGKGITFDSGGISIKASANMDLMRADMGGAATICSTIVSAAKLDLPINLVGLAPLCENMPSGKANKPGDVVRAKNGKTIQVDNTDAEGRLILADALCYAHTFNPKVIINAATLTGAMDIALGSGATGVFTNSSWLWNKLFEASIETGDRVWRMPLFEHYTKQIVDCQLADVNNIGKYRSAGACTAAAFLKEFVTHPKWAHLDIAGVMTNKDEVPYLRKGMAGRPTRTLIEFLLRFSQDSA
The experiment in a line: Inhibition of pig kidney cytosolic Leucyl aminopeptidase.

A short description of assay [1]: Inhibition of bovine pancreas trypsin. Details: species or system Bos taurus.

Structures are written as SMILES.

As a reminder, the IC50 is the concentration that inhibits the measured activity by half.

With `O=c1cc(-c2ccc(O)c(O)c2)oc2ccccc12`, at Cytosol aminopeptidase, the IC50 is 35.1 µM.

`O=c1cc(-c2ccc(O)cc2)oc2cc(O)cc(O)c12` [APIGENIN] gave a 50% inhibitory concentration (IC50) in assay [1] of 142 µM.

For the compound `O=c1c(O)c(-c2ccc(O)cc2)oc2cc(O)cc(O)c12` [KAEMPFEROL], in assay [1], inhibition was half-maximal at 106 µM (IC50).

On to `O=c1cc(-c2ccc(O)c(O)c2)oc2cc(O)cc(O)c12` [LUTEOLIN], for which the IC50 against Cytosol aminopeptidase was 49.6 µM; in assay [1] it was 35.3 µM.

Take `O=c1c(O)c(-c2ccc(O)cc2O)oc2cc(O)cc(O)c12` [MORIN]: in assay [1], it took 111 µM to reach half-maximal inhibition (IC50).

In assay [1], `O=c1c(O)c(-c2cc(O)c(O)c(O)c2)oc2cc(O)cc(O)c12` [MYRICETIN] had a half-inhibitory concentration (IC50) of 10.2 µM.

On to `O=c1c(O)c(-c2ccc(O)c(O)c2)oc2cc(O)cc(O)c12` [QUERCETIN], for which the IC50 on Cytosol aminopeptidase was 34.3 µM; in assay [1] it was 7.1 µM.

For the compound `COc1cc(C2Oc3c(O)cc([C@H]4Oc5cc(O)cc(O)c5C(=O)[C@@H]4O)cc3C2CO)ccc1O` (stereo not given in full) [SILICRISTIN], the concentration for half-maximal inhibition (IC50) in assay [1] stood at 144 µM.
